These results are taken from US12246022B2, “Compositions and methods for treating, preventing or reversing age associated inflammation and disorders” (BROWN UNIVERSITY, priority 2019, dated 2025).

One series concerns human LINE-1. Kind of series: Human LINE-1 retrotransposition assay (dual luciferase pYX017 reporter, HeLa cells, Table 11). Type of series: cell-based. The procedure:
Assays were performed as described in Xie et al., 2011^151 with several modifications. The reporter assay was performed in 96 well white Optical bottom plates. 6000 HeLa cells were seeded in each well 24 hours prior transfection and compound treatment. All compounds were resuspended in DMSO. Stock solution concentrations varied from 50 mM to 1.25 mM depending of the solubility of the compound. Serial dilutions (1:3) were prepared in DMSO. Ten different concentrations of each compound were tested in triplicate. Medium containing different concentrations of the compounds were prepared by adding 2 μL of the compound dilution to 1 mL of the culture medium. The final concentration of DMSO in the medium was 0.2%. FuGENE® HD transfection reagent (Promega) was used to transfect the plasmid pYX016 into the cells. The transfection mix was prepared in OpiMEM (Thermo Fisher) using a reagent to DNA ratio of 3.5:1 according to manufacturer's instructions. Culture medium was removed from the cells and discarded. The transfection mix (5 μL) was mixed with the compound containing medium (100 μL/well) and this was added onto the cells of each well. Cells were incubated for 48H at 37° C./5% CO2. Luciferase reporter activity was quantified with the Dual-Luciferase® Reporter Assay System (Promega) according to manufacturer's instructions for multiwell plates with the following modification: Cells were lysed directly on the multiwell plate with 30 μL of the passive lysis buffer (PLB) for 20 min at room temperature, with gentle shaking to ensure complete cell lysis (instead of 20 μL of PLB for 15 min). Firefly and Renilla luciferase signals were measured using a SpectraMax i3x Multi-Mode Microplate Reader. […] Relative L1 activity was calculated as Firefly/Renilla *10,000. […] The experiment was performed twice, independently. […] Because the human construct yields a lower signal, compounds were incubated with cells for 72 hours instead of 48 hours, and cells were seeded at a density of 2000/well instead of 6000/well. In addition, the transfection reagent to DNA ratio was 2:1 instead of 3.5:1.

For series [1] the following is noted: Table 13 Comparative Studies; cited from earlier work.

Molecules are shown by their SMILES. Read-outs that look alike come from different tables or passages of the source. Bounds are passed on as bounds.

Turning to `Nc1ccn([C@@H]2CS[C@H](CO)O2)c(=O)n1` [Lamivudine], the IC50 in the series with human LINE-1 (pYX017, 72 H post-transfection, read-out: Human L1 activity inhibition IC50, Exp. 1) is 793 nM; in the series with human LINE-1 (pYX017, 72 H post-transfection, read-out: Human L1 activity inhibition IC50, Exp. 2), 867 nM; in the series with human LINE-1 (pYX017, 72 H, n = 2, read-out: Human L1 activity inhibition IC50, Average) it was 830 nM; in the series with human LINE-1 (read-out: human L1 inhibition IC50), greater than 800 nM.

Consider `Nc1nc(=O)n([C@@H]2CS[C@H](CO)O2)cc1F` [Emtricitabine], for which the huCSF/Plasma in series [1] is 0.35.
